Experimental data: patent US12473533B2, “Gene targets for T-cell-based immunotherapy” (The Regents of the University of California, priority 2018, dated 2025)

Test system: CD8+ T cells
Assay: Dose titration of CGS-21680 on T cell proliferation (CFSE)
Assay type: cell-based, human
Conditions: CFSE-labeled CD8+ T cells, two donors
Description: FIG. 12A-E. Screen for Resistance to an Immunosuppressive Signal in Primary T Cells Using SLICE, Related to FIG. 6. Section A: a dose titration of adenosine receptor agonist CGS-21680 for the optimal effects on T cell proliferation inhibition identified 20 μM as sufficiently suppressive. Shown are representative CFSE profiles for varying concentrations of CGS-21680, as labeled at the top of each panel. Data is for CFSE-labeled CD8^+ T cells from two human donors. Section C: Comparison of the overlapping top 25 hits for the two screen conditions (CGS-21680 and vehicle). We noted that while many hits from the vehicle screen also boosted proliferation in the presence of the immunosuppressive adenosine agonist (trending along diagonal), ADORA2A and FAM105A sgRNAs were enriched selectively in the setting of the adenosine agonist. ADORA2A and FAM105A were the only hits in the top 0.1% by LFC in the CGS-21680 treated condition and also in the top 0.1% by LFC difference between the CGS-21680 and the vehicle GW screen conditions. Section D: Paralogs FAM105A and OTULIN (FAM105B) are 40% homologous and are encoded at neighboring sites on chromosome 5. […] A non-synonymous single nucleotide polymorphism (SNP) in FAM105A has been linked to allergic disease by genome wide association studies (Ferreira et al., 2017). […]

SMILES: CCNC(=O)[C@H]1O[C@@H](n2cnc3c(N)nc(NCCc4ccc(CCC(=O)O)cc4)nc32)[C@H](O)[C@@H]1O [CGS-21680]
- concentration sufficiently suppressive of T cell proliferation: 20 µM
